Measured values published in a melting point compilation (Tetko et al.; mined from patent text by program, amines drawn as free bases though some values may be those of a salt).

SMILES | melting point [°C]
O=CN(O)C(CCCO)CS(=O)(=O)c1ccc(-c2ccc(Cl)cc2)cc1 (configuration not stated) | 160
O=C(CCc1cc2ccccc2s1)N1C(=O)OC[C@@H]1Cc1ccccc1 | 119 to 122
Cc1cccc(C)c1NC(=S)N1CC(Oc2cccc(C(F)(F)F)c2)C1 | 197 to 199
COP(=O)(Cc1cccc(CP(=O)(OC)OC)c1F)OC | 116 to 118
NC(=O)c1nnn(Cc2cc(Br)cc(C(Cl)=C(Cl)Cl)c2)c1N | 175 to 177
Cc1c(NC(=O)CC(C)(C)C)c(C)c2c(c1-c1cccc(N)c1)OCC2c1ccc(C(C)C)cc1 (configuration not stated) | 170 to 172
CC(C(=O)O)c1ccc2c(-c3ccc(F)cc3)noc2c1 (configuration not stated) | 151 to 154
CCOC(=O)c1cnc2cc(OC)ccc2c1O | > 260
COCOc1cc(OC)ccc1C(=O)c1ccc(OCc2nc(-c3ccccc3)oc2C)cc1 | 119 to 120
O=C(CCc1nnc(-c2ccc3c(c2)CCO3)o1)c1cccs1 | 151 to 152
COc1cc(C(C)C)c2c(c1)S(=O)(=O)N(COC(=O)c1c(C)c3cc(Cl)ccc3n1C)C2=O | 183 to 184
COC(=O)c1ccncc1OC | 132 to 135
O=C(O)Cc1cc(C(=O)C=Cc2ccc(Cl)cc2)ccc1O | 244
CCCCCCCCCCCCCCN(C(=O)CCCCCCCCCCC)C1(N)OC(CO)C(O)C(O)C1C(=O)CNC(=O)C(C)(N)C(=O)C(C)N (configuration not stated) | 132 to 134
CCCCCc1cc2c(nc(O)n2CC2CCN(C(C)=O)CC2)c(N)n1 | 228 to 231
CN1C(=O)CSc2c(NCc3cccc(OCc4ccc5ccccc5n4)c3)cccc21 | 102 to 104
c1ccc(-c2nc(CSc3nc4cccc5c4n3CCC5)cs2)cc1 | 116 to 118
CCOP(=O)(OCC)c1ccccc1 | 256
O=c1[nH]c2cc(C(F)(F)F)ccc2n1-c1cc(C(F)(F)F)cc([N+](=O)[O-])c1O | > 360
COC[C@H]1CN(c2ccc(OCCC3(O)CCCCC3)cc2)C(=O)O1 | 87
CC(C)(C)c1ccc(C(=O)Nc2cn3c4c(ccc3n2)OCC4)cn1 | 246 to 248
Cc1oc(-c2ccccc2)nc1CCOc1ccc(CCC2OC(=O)NC2=O)cc1 (configuration not stated) | 193 to 194
CC(=C1SC(=O)NC1=O)c1ccc(OCCOc2c(-c3ccc(F)cc3)n(C)c3ccccc3c2=O)cc1 | 228 to 230

SMILES | melting point [°C]
O=C(CC1CCCCCC1=O)c1ccc([N+](=O)[O-])cc1 (configuration not stated) | 79 to 84
CC(C#Cc1ccc2c(c1)CCN(Cc1ccc(-c3ccc(F)cc3)cn1)C2=O)N(O)C(N)=O (configuration not stated) | 118 to 120
Cn1c(Cl)c(C#N)c2ccccc21 | 112 to 114
CCNC(=S)c1c(Cl)cccc1[Si](C)(C)C | 158 to 159
N#Cc1cnn(-c2ccc(Cl)c(Cl)c2Cl)c1NCCO | 197 to 199
CCCCNC(=O)C1=C(C(=O)Nc2cc(OC3CCCC3)c(Cl)cc2F)CCCC1 | 142 to 144
CCOC(=O)c1ccc(NC(=O)C2Cc3cc(SC)ccc3C(=O)CS2)cc1 (configuration not stated) | 236 to 237
O=C(Nc1cc(-c2c(-c3ccc(F)cc3)nc3cccnn23)ccn1)c1ccc(Cl)nc1 | 247 to 248
COC(=O)c1cccc2c([N+](=O)[O-])cccc12 | 105
CCOCc1nc2c(N)nc3cc(S(C)(=O)=O)ccc3c2n1CCCOC | 166 to 168
CCOc1cccc(Oc2cccnc2C#N)c1 | 83 to 84
Cc1ccc(C(=O)NC(C)NC(=S)Nc2cccc([N+](=O)[O-])c2)cc1 (configuration not stated) | 172 to 175
CC(C)c1ccc(NC(=O)OC(C)(C)C)c(NC(=O)CC(=O)c2cccc(C#N)c2)c1 | 179 to 180
COC(=O)c1nc2cc(I)ccc2c(O)c1C(=O)OC | 243 to 244
COc1ccc(S(=O)(=O)c2nccn2C(C)C)cc1 | 84 to 86
OC1CSC(Oc2cnc(-c3ccc(F)nc3)c(F)c2)C(O)C1O (configuration not stated) | 184
O=c1oc(-c2cc(C(F)(F)F)cc(C(F)(F)F)c2)ns1 | 61 to 62.5
CCc1cccc(CC(=O)O)c1OCCCc1cn(-c2ccc(Cl)cn2)nc1C(C)C | 142 to 143
COc1ccc(CC(=O)NC(NC(=NC#N)Nc2ccccc2Cl)C(C)(C)C)cc1OC (configuration not stated) | 135 to 136
CCCOC(=O)C=CC1C(C(=O)O)C1(C)C (configuration not stated) | 59
CC(=O)c1nc2cccc(OC(F)(F)F)c2cc1OCc1ccccc1 | 90 to 92
CCc1sc2ncnc(N)c2c1-c1ccc(NS(=O)(=O)c2ccccc2)cc1 | 209 to 210
Clc1nnc(CN2CC3(COc4cc5c(cc43)OCO5)c3ccccc32)s1 (configuration not stated) | 194 to 197

Results, then the compound that gave them:

melting point [°C] | SMILES
42 to 45 | CC(Br)(CC(Cl)(Cl)Cl)c1cccc(Cl)n1 (configuration not stated)
208 to 210 | CCc1cccc(CC)c1NC(=O)c1c2n(c(C)c(Br)c1=O)CCCC2
> 250 | CN1C(=O)C2(COc3cc4c(cc32)OCCO4)c2c(Oc3ncccc3C(F)(F)F)cccc21 (configuration not stated)
160 to 162 | C=C(c1ccc(-c2ncnn2COCC)cc1)C(O)(Cn1cncn1)c1ccc(F)cc1F (configuration not stated)
109 to 111 | N#Cc1cccc2c1CCCc1ccccc1-2
197 to 198 | COc1ccc(C(=O)Nc2ccccc2)cc1NS(=O)(=O)c1ccc(C(F)(F)F)cc1
72 to 73 | CN(CCCCC(=O)O)c1ccc(Br)cc1C=O
174 to 175 | OC(c1ccccc1)(c1ccc(Cl)cc1)c1nccn1Cc1ccccc1 (configuration not stated)
65 to 66 | CCCCCc1c(C(C)C)nc(C(C)C)c(CO)c1-c1cccc(OC)c1
128 | Cc1cc(O)c(SCc2ccccc2)c(=O)o1
88 to 89 | COC(=O)c1coc2ccc(OCc3ccccc3)cc2c1=O
117 | CCCCCCCCCCCCCCCCCCCCCC(=O)NN
92 to 94 | COc1ccc2sn(C(C)(C)C)c(=O)c2c1
51 to 52 | N#Cc1nccn1Cc1ccccc1
137 | COc1ccc(CCC(=O)Nc2ccccc2C(=O)O)cc1OC
110 to 112 | COC(=O)CSc1cc(NC(=O)OC(C)(C)C)c([N+](=O)[O-])cc1I
98 to 100 | CN1C(=O)C(c2cc[nH]c2)(c2cccc(OCc3ccccc3)c2)N=C1N (configuration not stated)
71 to 73 | Clc1ccc2sc(=Nc3ccccc3)sc2c1
99 to 100 | O=C1CCC(CCC(=O)OCc2ccccc2Cl)N1 (configuration not stated)
125 to 127 | Nc1c(CC(=O)O)cccc1Oc1ccc(Cl)c(Cl)c1
154 | COc1ccc(-c2sc3c(c2OC(C)=O)CCCc2ccccc2-3)cc1
214 to 217 | Cc1cc(C)c2c(c1)OS(=O)(=O)C(=Cc1ccc(N(C)C)cc1)C2=O
192 to 194 | CCC(=O)Oc1cc(-c2nc3cc(C(=O)O)ccc3oc2=O)cc([N+](=O)[O-])c1OC(=O)CC
272 | Cn1nnc2c(N3CCOCC3)nc(-c3ccc(NC(=O)Nc4cccnc4)cc3)nc21
111 to 113 | O=[N+]([O-])c1ccc2c(c1)OC(CO)(CO)O2
136 | CCN(C(=O)n1nnc2cc(C)c(C)cc21)c1ccccc1
